Tests used:
STAT3 [1] = target: T1, STAT3 (Homo sapiens, UniProt P40763); assay: Quantitation of STAT3 degradation in A549 cells by Western blot; format: cell-based; design: expressed in transfected cells; host or cells: A549
Procedure: Degradation of total cellular STAT3 protein in A549 was quantitatively measured using SDS-PAGE and Western blot analysis. A549 cells (5×10^5 cells/well, 2 mL) were seeded into 6-well plates and were incubated in the incubator under 5% CO2 overnight to reach ˜80% confluency. The next day, the culture medium was changed with 1 ml fresh media. Then, 1 mL of media containing 2× compound solution was added into the well to make the final concentration of 30 μM, 10 μM, 3 μM, 1 μM, 0.3 μM and 0 μM (DMSO). The media was thoroughly mixed and incubated for 24 hours at 37° C. under 5% CO2. Then, the culture media was removed from the assay plates and the cells were washed with ice-cold PBS twice. To prepare cell lysates, 200 ul pre-chilled RIPA lysis buffer (Boston BioProducts BP-115D) with protease/phosphatase inhibitor (Roche 05892791001/Roche 04906837001) was added directly into the well to lyse the cells for 20 minutes on ice. The cell lysates were then transferred to centrifuge tubes. Insoluble part of lysates was removed by centrifuging the lysates at 13000 rpm for 20 minutes. The supernatant was then collected and mixed with 5× loading buffer (Beyotime Bio P0015) to make the final samples for SDS-PAGE analysis. The samples were heated at 100° C. for 10 minutes and cool to room temperature before centrifuging at 13000 rpm for 20 minutes. To analyze the samples by SDS-PAGE, 10 ul samples were loaded onto SDS-PAGE gel (Novex, WG1403BOX) and the SDS-PAGE gel was run for 20 minutes at 80 V, then at 120 V for 1.5 hours. The SDS-PAGE gel was then transferred to nitrocellulose membrane using the wet-transfer method at 250 mA for 1.5 hours. The membrane was then blocked with LI-COR blocking buffer (LI-COR, 927-50000) for 1 hour and was probed with primary antibody (mouse anti-STAT3 (124H6) (CST #91395) 1:2000 or mouse anti-beta-Actin (8H10D10) (CST #3700) 1:10000) at 4° C. overnight. The membrane was then washed three times with TBST buffer and probed with secondary antibody (anti-mouse IgG (LI-COR, 926-68070), 1:5000) for 1 hour at room temperature. The membrane was then scanned on a LI-COR Odyssey instrument and was quantified using Image Studio Version 5.2. Concentration at 50% degradation (DC50) was calculated by fitting dose dependent degradation data using a sigmoidal equation using GraphPad Prism Version 8.0.

STAT3 [2] = target: T1, STAT3; assay: STAT3 HiBiT degradation assay in transfected A549 cells; format: cell-based; design: expressed in transfected cells; host or cells: A549; settings: A549, 24 h; read-out: STAT3 HiBiT A549 degradation 24 h: Average external-Abs DC50
How it was run: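 Transfected A549 cells (~2000/well) plated 24 h, then treated 24 h at 37 °C, 5% CO2 with a 3-fold, 10-point compound dilution. HiBiT lytic luminescence read after 10 min at room temperature; remaining STAT3 normalized to negative and positive controls, four-parameter fit. DC50 binned A <0.01, B 0.01–0.1, C 0.1–1.0, D >1.0 µM.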

[3] = read-out: A549 DC50, 24 hours, tested up to 30 μM or 10 μM

T1 sequence (P40763 whole entry): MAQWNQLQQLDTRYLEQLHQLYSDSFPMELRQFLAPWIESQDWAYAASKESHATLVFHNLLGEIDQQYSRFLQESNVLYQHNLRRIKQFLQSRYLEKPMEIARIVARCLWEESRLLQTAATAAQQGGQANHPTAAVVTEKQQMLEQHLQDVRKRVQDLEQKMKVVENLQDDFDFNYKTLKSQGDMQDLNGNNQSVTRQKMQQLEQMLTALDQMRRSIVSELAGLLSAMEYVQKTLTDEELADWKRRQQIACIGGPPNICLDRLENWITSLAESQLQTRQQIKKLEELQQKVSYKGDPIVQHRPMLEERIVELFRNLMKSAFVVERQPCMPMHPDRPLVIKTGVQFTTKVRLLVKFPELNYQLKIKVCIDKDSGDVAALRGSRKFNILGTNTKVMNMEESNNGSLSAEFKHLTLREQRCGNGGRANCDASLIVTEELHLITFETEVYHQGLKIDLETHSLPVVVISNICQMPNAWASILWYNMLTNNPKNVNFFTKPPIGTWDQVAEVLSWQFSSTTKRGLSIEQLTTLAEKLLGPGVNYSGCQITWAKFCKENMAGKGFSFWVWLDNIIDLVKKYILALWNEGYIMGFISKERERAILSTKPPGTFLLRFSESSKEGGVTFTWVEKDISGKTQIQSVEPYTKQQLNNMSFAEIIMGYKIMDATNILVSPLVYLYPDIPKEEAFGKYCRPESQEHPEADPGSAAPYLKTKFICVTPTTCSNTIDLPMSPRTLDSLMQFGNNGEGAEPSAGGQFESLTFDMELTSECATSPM

| Compound | DC50 (STAT3 [1]; [3]) [µM] | other results |
| --- | --- | --- |
| C/C(=C\C(=O)N[C@H]1CCc2cccc3c2N(C1=O)[C@H](C(=O)N[C@@H](CCC(N)=O)[C@@H](C)OCc1ccc(CCCCC(=O)N[C@H](C(=O)N2C[C@@H](O)C[C@H]2C(=O)NCc2ccc(-c4scnc4C)cc2)C(C)(C)C)cc1)C3)c1ccc(C(F)(F)P(=O)(OCOC(=O)C(C)(C)C)OCOC(=O)C(C)(C)C)cc1 [Compound I-2] | > 30 |  |
| C/C(=C\C(=O)N[C@H]1CCc2cccc3c2N(C1=O)[C@H](C(=O)N[C@@H](CCC(N)=O)[C@@H](C)OCc1ccc(CCCCc2cccc4c2n(C)c(=O)n4C2CCC(=O)NC2=O)cc1)C3)c1ccc(C(F)(F)P(=O)(OCOC(=O)C(C)(C)C)OCOC(=O)C(C)(C)C)cc1 (stereo partly shown) [Compound I-3] | > 30 |  |
| C/C(=C\C(=O)N[C@H]1CCc2cccc3c2N(C1=O)[C@H](C(=O)N[C@@H](CCC(N)=O)[C@@H](C)OCc1ccc(CC(=O)N[C@H](C(=O)N2C[C@H](O)C[C@H]2C(=O)NCc2ccc(-c4scnc4C)cc2)C(C)(C)C)cc1)C3)c1ccc(C(F)(F)P(=O)(OCOC(=O)C(C)(C)C)OCOC(=O)C(C)(C)C)cc1 [Compound I-4] | > 30 |  |
| C/C(=C\C(=O)N[C@H]1CCc2cccc3c2N(C1=O)[C@H](C(=O)N[C@@H](CCC(N)=O)[C@@H](C)OCc1ccc(CCCOCc2cccc4c2n(C)c(=O)n4C2CCC(=O)NC2=O)cc1)C3)c1ccc(C(F)(F)P(=O)(OCOC(=O)C(C)(C)C)OCOC(=O)C(C)(C)C)cc1 (stereo partly drawn) [Compound I-5, [([4-[(1E)-1-[[(2S,11S)-2-[[(3S,4R)-1-carbamoyl-4-[[4-(3-[[1-(2,6-dioxopiperidin-3-yl)-3-methyl-2-oxo-1,3-benzodiazol-4-yl]methoxy]propyl)phenyl]methoxy]pentan-3-yl]carbamoyl]-12-oxo-1-azatricyclo[6.4.1.0^[4,13]]trideca-4(13),5,7-trien-11-yl]carbamoyl]prop-1-en-2-yl]phenyl]difluoromethyl([(2,2-dimethylpropanoyl)oxy]methoxy)phosphoryl)oxy]methyl 2,2-dimethylpropanoate] | > 30 |  |
| C/C(=C\C(=O)N[C@H]1CCc2cccc3c2N(C1=O)[C@H](C(=O)N[C@@H](CCC(N)=O)[C@@H](C)OCc1ccc(CCCCCc2cccc4c2n(C)c(=O)n4C2CCC(=O)NC2=O)cc1)C3)c1ccc(C(F)(F)P(=O)(OCOC(=O)C(C)(C)C)OCOC(=O)C(C)(C)C)cc1 (stereo partly drawn) [Compound I-6, [([4-[(1E)-1-[[(2S,11S)-2-[[(3S,4R)-1-carbamoyl-4-[(4-[5-[1-(2,6-dioxopiperidin-3-yl)-3-methyl-2-oxo-1,3-benzodiazol-4-yl]pentyl]phenyl)methoxy]pentan-3-yl]carbamoyl]-12-oxo-1-azatricyclo[6.4.1.0^[4,13]]trideca-4(13),5,7-trien-11-yl]carbamoyl]prop-1-en-2-yl]phenyl]difluoromethyl([(2,2-dimethylpropanoyl)oxy]methoxy)phosphoryl)oxy]methyl 2,2-dimethylpropanoate] | > 30 |  |
| C/C(=C\C(=O)N[C@H]1CCc2cccc3c2N(C1=O)[C@H](C(=O)N[C@@H](CCC(N)=O)[C@@H](C)OCc1ccc(CCCC(=O)N[C@H](C(=O)N2C[C@H](O)C[C@H]2C(=O)NCc2ccc(-c4scnc4C)cc2)C(C)(C)C)cc1)C3)c1ccc(C(F)(F)P(=O)(OCOC(=O)C(C)(C)C)OCOC(=O)C(C)(C)C)cc1 [Compound I-7] | < 30 |  |
| C/C(=C\C(=O)N[C@H]1CCc2cccc3c2N(C1=O)[C@H](C(=O)N[C@@H](CCC(N)=O)[C@@H](C)OCc1ccc(CCCCC(=O)N[C@H](C(=O)N2C[C@H](O)C[C@H]2C(=O)NCc2ccc(-c4scnc4C)cc2)C(C)(C)C)cc1)C3)c1ccc(C(F)(F)P(=O)(OCOC(=O)C(C)(C)C)OCOC(=O)C(C)(C)C)cc1 [Compound I-8, (2S,4R)-1-[(2S)-2-[5-[4-([[(2R,3S)-3-[[(2S,11S)-11-amino-12-oxo-1-azatricyclo[6.4.1.0^[4,13]]trideca-4(13),5,7-trien-2-l]formamido]-5-carbamoylpentan-2-yl]oxy]methyl)phenyl]pentanamido]-3,3-dimethylbutanoyl]-4-hydroxy-N-[[4-(4-methyl-1,3-thiazol-5-yl)phenyl]methyl]pyrrolidine-2-carboxamide] | < 30 |  |
| C/C(=C\C(=O)N[C@H]1CCc2cccc3c2N(C1=O)[C@H](C(=O)N[C@@H](CCC(N)=O)[C@@H](C)OCc1ccc(CCOCCCc2cccc4c2n(C)c(=O)n4C2CCC(=O)NC2=O)cc1)C3)c1ccc(C(F)(F)P(=O)(OCOC(=O)C(C)(C)C)OCOC(=O)C(C)(C)C)cc1 (stereo partly drawn) [Compound I-9, [([4-[(1E)-1-[[(2S,11S)-2-[[(3S,4R)-1-carbamoyl-4-[[4-(2-[3-[1-(2,6-dioxopiperidin-3-yl)-3-methyl-2-oxo-1,3-benzodiazol-4-yl]propoxy]ethyl)phenyl]methoxy]pentan-3-yl]carbamoyl]-12-oxo-1-azatricyclo[6.4.1.0^[4,13]]trideca-4(13),5,7-trien-11-yl]carbamoyl]prop-1-en-2-yl]phenyl]difluoromethyl([(2,2-dimethylpropanoyl)oxy]methoxy)phosphoryl)oxy]methyl 2,2-dimethylpropanoate] | > 30 |  |
| C/C(=C\C(=O)N[C@H]1CCc2cccc3c2N(C1=O)[C@H](C(=O)N[C@@H](CCC(N)=O)[C@@H](C)OCc1ccc(CCCOCCCc2cccc4c2n(C)c(=O)n4C2CCC(=O)NC2=O)cc1)C3)c1ccc(C(F)(F)P(=O)(OCOC(=O)C(C)(C)C)OCOC(=O)C(C)(C)C)cc1 (stereo partly drawn) [Compound I-10, [([4-[(1E)-1-[[(2S,11S)-2-[[(3S,4R)-1-carbamoyl-4-[[4-(3-[3-[1-(2,6-dioxopiperidin-3-yl)-3-methyl-2-oxo-1,3-benzodiazol-4-yl]propoxy]propyl)phenyl]methoxy]pentan-3-yl]carbamoyl]-12-oxo-1-azatricyclo[6.4.1.0^[4,13]]trideca-4(13),5,7-trien-11-yl]carbamoyl]prop-1-en-2-yl]phenyl]difluoromethyl([(2,2-dimethylpropanoyl)oxy]methoxy)phosphoryl)oxy]methyl 2,2-dimethylpropanoate] | > 30 |  |
| C/C(=C\C(=O)N[C@H]1CCc2cccc3c2N(C1=O)[C@H](C(=O)N[C@@H](CCC(N)=O)[C@@H](C)OCc1ccc(C(=O)N[C@H](C(=O)N2C[C@H](O)CC2C(=O)NCc2ccc(-c4scnc4C)cc2)C(C)(C)C)cc1)C3)c1ccc(C(F)(F)P(=O)(OCOC(=O)C(C)(C)C)OCOC(=O)C(C)(C)C)cc1 (stereo partly shown) [Compound I-11] | > 30 |  |
| C/C(=C\C(=O)N[C@H]1CCc2cccc3c2N(C1=O)[C@H](C(=O)N[C@@H](CCC(N)=O)[C@@H](C)OCc1ccc(CCC(=O)N[C@H](C(=O)N2C[C@H](O)CC2C(=O)NCc2ccc(-c4scnc4C)cc2)C(C)(C)C)cc1)C3)c1ccc(C(F)(F)P(=O)(OCOC(=O)C(C)(C)C)OCOC(=O)C(C)(C)C)cc1 (stereo partly shown) [Compound I-12] | > 30 |  |
| C/C(=C\C(=O)N[C@H]1CCc2cccc3c2N(C1=O)[C@H](C(=O)N[C@@H](CCC(N)=O)[C@@H](C)OCc1ccc(CCOCC(=O)N[C@H](C(=O)N2C[C@H](O)C[C@H]2C(=O)NCc2ccc(-c4scnc4C)cc2)C(C)(C)C)cc1)C3)c1ccc(C(F)(F)P(=O)(OCOC(=O)C(C)(C)C)OCOC(=O)C(C)(C)C)cc1 [Compound I-13] |  | DC50 (STAT3 [1]; 24 hours, tested up to 30 μM or 10 μM, read-out: A549 DC50): < 30 µM |
| CC(C)c1ccc(CNC(=O)[C@H](CCC(N)=O)NC(=O)[C@@H]2CC[C@@H]3CCN(C(=O)[C@H]4CC[C@@H](CCc5ccc6c(c5)n(C)c(=O)n6C5CCC(=O)NC5=O)CC4)C[C@H](NC(=O)c4cc5cc(C(=O)P(=O)(O)O)ccc5[nH]4)C(=O)N32)cc1 (stereo partly drawn) [Compound I-295, (2-(((5S,8S,10aR)-8-(((S)-5-amino-1-((4-isopropylbenzyl)amino)-1,5-dioxopentan-2-yl)carbamoyl)-3-((1r,4R)-4-(2-(1-(2,6-dioxopiperidin-3-yl)-3-methyl-2-oxo-2,3-dihydro-1H-benzo[d]imidazol-5-yl)ethyl)cyclohexane-1-carbonyl)-6-oxodecahydropyrrolo[1,2-a][1,5]diazocin-5-yl)carbamoyl)-1H-indole-5-carbonyl)phosphonic acid] |  | DC50 (STAT3 [2]): < 0.01 µM |

From patent US12077555B2, “STAT degraders and uses thereof” (Kymera Therapeutics, Inc., priority 2019, dated 2024)
